In patent US20230192617A1, “AZABICYCLIC(THIO)AMIDES AS FUNGICIDAL COMPOUNDS” (Bayer CropScience Aktiengesellschaft, priority 2020, published 2023):

Tests used:
[1] = Measurement of Log P values by HPLC on reversed phase columns (EEC directive 79/831 Annex V.A8); assay type: physicochemical; conditions: reversed phase HPLC column
Summary of the method: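 Reversed-phase HPLC with UV detection per EEC 79/831 Annex V.A8, linear 10–95% acetonitrile gradient. Aqueous eluent: 0.1% formic acid (acidic), 0.001 M ammonium acetate (neutral), or 0.1% phosphoric acid (acidic); multiple values in one method joined by "+".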

[2] = test system: Alternaria brassicae; assay: In vivo preventive test on Alternaria brassicae (leaf spot on radish or cabbage); conditions: 500 ppm of active ingredient, preventive spray on radish or cabbage, evaluated 3 to 4 days after inoculation, read-out: efficacy
Summary of the method: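 Young radish or cabbage plants were sprayed with compound dissolved in DMSO/acetone/Tween 80 and diluted in water; controls received solvent only. Inoculation by spraying A. brassicae spore suspension 24 h later, then 3–4 days at 20 °C and 100% relative humidity.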

[3] = test system: Botrytis cinerea; assay: In vivo preventive test on Botrytis cinerea (grey mould); conditions: 500 ppm of active ingredient, preventive spray on gherkin or cabbage, evaluated 4 to 5 days after inoculation, read-out: efficacy
Summary of the method: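 Young gherkin or cabbage plants were sprayed with compound in DMSO/acetone/Tween 80 diluted in water, then inoculated 24 hours later with a B. cinerea spore suspension. Incubation lasted 4 to 5 days: gherkin at 17° C., 90% relative humidity; cabbage at 20° C., 100% relative humidity.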

[4] = test system: Pyrenophora teres; assay: In vivo preventive test on Pyrenophora teres (net blotch on barley); conditions: 240 h, 500 ppm of active ingredient, preventive spray on barley, evaluated 10 days after inoculation, read-out: efficacy
Experimental: B-3. In Vivo Preventive Test on Pyrenophora Teres (Net Blotch on Barley) [table] The active ingredients were made soluble and homogenized in a mixture of Dimethyl sulfoxide/Acetone/Tween® 80 and then diluted in water to the desired concentration. The young plants of barley were treated by spraying the active ingredient prepared as described above. Control plants were treated only with an aqueous solution of Acetone/Dimethyl sulfoxide/Tween® 80. After 24 hours, the plants were contaminated by spraying the leaves with an aqueous suspension of Pyrenophora teres spores. The contaminated barley plants were incubated for 48 hours at 20° C. and at 100% relative humidity and then for 8 days at 20° C. and at 70-80% relative humidity.

[5] = test system: Sphaerotheca fuliginea; assay: In vivo preventive test on Sphaerotheca fuliginea (powdery mildew on cucurbits); conditions: Podosphaera fuliginea, 192 h; 500 ppm of active ingredient; preventive spray on gherkin; evaluated 8 days after inoculation; read-out: efficacy
Summary of the method: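 Young gherkin plants were sprayed with compound in DMSO/acetone/Tween 80 diluted in water. They were inoculated 24 h later with a spore suspension of Sphaerotheca fuliginea. Plants were then kept for 8 days at 20 °C and 70–80% relative humidity.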

[6] = test system: Colletotrichum lindemuthianum; assay: In vivo preventive test on Colletotrichum lindemuthianum (leaf spot on bean); conditions: 168 h, 500 ppm of active ingredient, preventive spray on bean, evaluated 7 days after inoculation, read-out: efficacy
Experimental: B-5. In Vivo Preventive Test on Colletotrichum lindemuthianum (Leaf Spot on Bean) [table] The active ingredients were made soluble and homogenized in a mixture of Dimethyl sulfoxide/Acetone/Tween® 80 and then diluted in water to the desired concentration. The young plants of bean were treated by spraying the active ingredient prepared as described above. Control plants were treated only with an aqueous solution of Acetone/Dimethyl sulfoxide/Tween® 80. After 24 hours, the plants were contaminated by spraying the leaves with an aqueous suspension of Colletotrichum lindemuthianum spores. The contaminated bean plants were incubated for 24 hours at 20° C. and at 100% relative humidity and then for 6 days at 20° C. and at 90% relative humidity.

[7] = test system: Alternaria alternata; assay: Alternaria alternata in vitro cell test; assay type: cell-based; conditions: 120 h, 20 ppm of active ingredient, liquid culture, 5 days incubation, spectrometric measurement of mycelium growth, read-out: efficacy (inhibition of fungal growth)
Summary of the method: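 Liquid culture assay in which A. alternata spores in medium received DMSO-solubilized compound (final DMSO ≤1%). After 5 days, mycelium growth was measured spectrometrically. Inhibition was calculated against fungicide-free control wells.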

[8] = test system: Colletotrichum lindemuthianum; assay: B-8. Colletotrichum lindemuthianum in vitro cell test; assay type: cell-based; conditions: 144 h, 20 ppm of active ingredient, 6 days incubation, liquid culture, absorbance, read-out: efficacy (inhibition of fungal growth)
Summary of the method: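 Spore suspension of C. lindemuthianum in liquid medium exposed to DMSO-solubilized compounds (final DMSO ≤1%) for 6 days. Mycelial growth read by absorbance, with inhibition calculated relative to compound-free control wells.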

[9] = test system: Pyrenophora teres; assay: B-10. Pyrenophora teres in vitro cell test; assay type: cell-based; conditions: 144 h, 20 ppm of active ingredient, 6 days incubation, liquid culture, absorbance, read-out: efficacy (inhibition of fungal growth)
Summary of the method: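 Liquid-culture assay on a P. teres spore suspension with compounds added to the medium from DMSO solutions, final DMSO ≤1%. Mycelium growth read spectrometrically after 6 days. Inhibition calculated from absorbance against untreated control wells.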

[10] = test system: Botrytis cinerea; assay: B-11. Botrytis cinerea in vitro cell test; assay type: cell-based; conditions: 144 h, 20 ppm of active ingredient, 6 days incubation, liquid culture, absorbance, read-out: efficacy (inhibition of fungal growth)
Summary of the method: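 B. cinerea spores were grown in liquid culture with compound (DMSO ≤1% final). Mycelium growth was measured spectrometrically after 6 days, with inhibition taken as absorbance relative to untreated control wells.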

[11] = method [a]: LC-UV, acidic range, 0.1% formic acid in water and acetonitrile as eluent

Row | chromatographic logP [1, 11] | chromatographic logP ([1]; method [b]: LC-UV, neutral range, 0.001 molar ammonium acetate solution in water and acetonitrile as eluent) | Structure (SMILES) | pest or weed control at 500 ppm [2] [%] | pest or weed control at 500 ppm [3] [%] | pest or weed control at 500 ppm [4] [%] | pest or weed control at 500 ppm [5] [%] | pest or weed control at 500 ppm [6] [%] | inhibition at 20 ppm [7] [%] | inhibition at 20 ppm [8] [%] | inhibition at 20 ppm [9] [%] | inhibition at 20 ppm [10] [%]
1 | 3.71 | – | Cc1ccc(C(F)(F)CNC(=O)c2c(Oc3cccc(C(F)(F)F)c3)cnc3c2OCCO3)c(C)c1 [I-109] | 90 to 100 | 90 to 100 | 90 to 100 | 90 to 100 | 90 to 100 | 90 to 100 | 90 to 100 | – | –
2 | 4.45 | – | Cc1ccc(C(F)(F)CNC(=O)c2c(Oc3cccc(C4CC4)c3)nnc3ccccc23)c(C)c1 [I-218] | 90 to 100 | 90 to 100 | 80 to 89 | – | 90 to 100 | 90 to 100 | 90 to 100 | 90 to 100 | 90 to 100
3 | 4.28 | – | Cc1ccc(C(F)(F)CNC(=O)c2c(Oc3cccc(C(F)(F)F)c3)nnc3c2CCCCC3)c(C)c1 [I-113, N-[2-(2,4-dimethylphenyl)-2,2-difluoro-ethyl]-3-[3-(trifluoro-methyl)phenoxy]-6,7,8,9-tetrahydro-5H-cyclohepta[c]pyridazine-4-carboxamide] | 90 to 100 | 90 to 100 | 70 to 79 | 90 to 100 | 80 to 89 | 90 to 100 | 90 to 100 | – | –
4 | 4.2 | – | Cc1ccc(C(F)(F)CNC(=O)c2c(Oc3cccc(Cl)c3)nnc3ccccc23)c(C)c1 [I-024] | 90 to 100 | 90 to 100 | 70 to 79 | 90 to 100 | 90 to 100 | 90 to 100 | 90 to 100 | – | –
5 | 3.94 | – | O=C(NCC(F)(F)c1ccc(Br)cc1Cl)c1c(Oc2cccc(C(F)(F)F)c2)cnc2c1OCCO2 [I-107, N-[2-(4-bromo-2-chloro-phenyl)-2,2-difluoro-ethyl]-7-[3-(tri-fluoromethyl)phenoxy]-2,3-dihydro-[1,4]dioxino[2,3-b]pyridine-8-carboxamide] | 90 to 100 | 90 to 100 | 80 to 89 | 90 to 100 | 90 to 100 | 90 to 100 | 90 to 100 | – | –
6 | 4.77 | – | Cc1ccc(CCNC(=O)c2c(Oc3cccc(C(F)(F)F)c3)nnc3ccsc23)c(C)c1 [I-231] | 90 to 100 | – | 70 to 79 | 90 to 100 | – | – | – | – | 80 to 89
7 | 3.8 | 3.79 | Cc1ccc2c(c1)CCC[C@@H]2NC(=O)c1c(Oc2cccc(C(F)(F)F)c2)cnc2c1OCCO2 (racemic) [I-112] | 90 to 100 | 90 to 100 | 80 to 89 | 90 to 100 | 90 to 100 | 90 to 100 | 90 to 100 | – | –
8 | 4.14 | – | Cc1ccc(C(F)(F)CNC(=O)c2c(Oc3cccc(C(F)(F)F)c3)cnc3ccoc23)c(C)c1 [I-066, N-[2-(2,4-dimethylphenyl)-2,2-difluoro-ethyl]-6-[3-(trifluoro-methyl)phenoxy]furo[3,2-b]pyridine-7-carboxamide] | 90 to 100 | 90 to 100 | 70 to 79 | 90 to 100 | – | 90 to 100 | 90 to 100 | 90 to 100 | 90 to 100
9 | 4.11 | – | Cc1cccc(Oc2nnc3ccccc3c2C(=O)NCC(F)(F)c2ccc(C)cc2C)c1 [I-017] | 90 to 100 | 90 to 100 | 70 to 79 | 90 to 100 | – | 90 to 100 | 90 to 100 | – | –
